This test deals with mechanical allodynia in spinal nerve ligated rats. Briefly: Determination of analgesic effect: mechanical allodynia (von Frey) after L5/L6 spinal nerve ligation. The settings on record: oral, in PEG400, 60 minutes before von Frey testing; percentage of maximal protective effect relative to vehicle; male Sprague Dawley rats.

From the text: Male Sprague Dawley rats (80-100 g) were purchased from Charles River (Portage, Mich.). Prior to surgery, animals were group-housed and maintained in a temperature regulated environment (lights on between 7:00 a.m. and 8:00 p.m.). Following nerve ligation surgery, animals were group housed. Two weeks after surgery, experimentation began. Rats had access to food and water ad libitum.
Briefly, an incision was made on the dorsal portion of the hip and the muscle was blunt dissected to reveal the spinal processes. The L6 transverse process was removed, and the left L5 and L6 spinal nerves were tightly ligated with a 5.0 braided silk suture. The wound was cleaned, the membrane sewn with a 4.0 dissolvable Vicryl suture and the skin closed with wound clips.
For the assessment of neuropathic pain, mechanical allodynia in the affected paw of animals that had undergone spinal nerve ligation was evaluated using von Frey filaments. […] Using the Dixons Up-Down method, a baseline level of allodynia was determined to have a withdrawal threshold of 3 g of pressure.
Rats were placed in groups labeled A-D with six rats per group. Group A was administered 1.0 mL/kg of vehicle (100% PEG400). […] Data are expressed as the percentage of maximal protective effect relative to the control (vehicle treated) animals.

Compound `N[C@H](C(=O)O)c1ccccc1` [(2S)-amino(phenyl)acetic acid] showed an EC50 of 50 µmol/kg.
The value for `NCC1(CC(=O)O)CCCCC1` [Gabapentin] was 160 µmol/kg.

The values above are taken from patent publication US20050148671A1, “(2S)-amino(phenyl)acetic acid and derivatives as alpha2delta voltage-gated calcium channel ligands” (priority 2004, published 2005).
